According to patent US6645529B2, “Instant granules and process for their formulation” (Dr. Gergely & Co., priority 2000, dated 2003):

Legend:
[1] = bulk density; type: physicochemical; conditions: for bulk density (g/100 ml): Table 1, preferred carrier materials; for Bulk density in g/100 ml: Table 3, carrier materials
[2] = dissolving times of different carrier materials; type: physicochemical; conditions: 10 g in 100 ml water of 17° C., stirred at 500 rpm, visual
Procedure: Testing conditions: 10 g of each carrier material was added to 100 ml water of 17° C. in a 400 ml beaker and stirred at 500 rpm by a magnetic stirrer. Dissolution was determined visually.

[3] = listed as mannitol (fine granulated)

| SMILES | bulk density (g/100 ml) [1] [g/100 ml] | Bulk density in g/100 ml [1] [g/100 ml] | Dissolving time [2] [s] | Bulk density in g/100 ml [1, 3] [g/100 ml] | Dissolving time [2, 3] [s] |
| --- | --- | --- | --- | --- | --- |
| O.O=P([O-])(O)O.O=P([O-])(O)O.[Ca+2] [monocalcium phosphate.H2O] | 82 | – | – | – | – |
| OC[C@@H](O)[C@@H](O)[C@H](O)[C@@H](O)CO [sorbitol (spray dried), sorbitol] | 45 | 45 | 50 | – | – |
| O.O.O=C([O-])CC(O)(CC(=O)[O-])C(=O)[O-].[Na+].[Na+].[Na+] [trisodiumcitrate.2H2O] | 95 | 95 | 85 | – | – |
| OC[C@H]1O[C@@](CO)(O[C@H]2O[C@H](CO)[C@@H](O)[C@H](O)[C@H]2O)[C@@H](O)[C@@H]1O [saccharose (coarse grain), saccharose] | 88 | – | – | – | – |
| OC[C@@H](O)[C@@H](O)[C@H](O)[C@@H](O)CO [sorbitol] | 58 | 58 | 90 | – | – |
| OC[C@@H](O)[C@@H](O)[C@H](O)[C@H](O)CO [mannitol] | 63 | – | – | 62 | 95 |
| OC[C@H]1O[C@@](CO)(O[C@H]2O[C@H](CO)[C@@H](O)[C@H](O)[C@H]2O)[C@@H](O)[C@@H]1O [instant sugar] | 50 | 45 | 15 | – | – |
| OC[C@@H](O)[C@@H](O[C@H]1O[C@H](CO)[C@@H](O)[C@H](O)[C@H]1O)[C@H](O)[C@@H](O)CO [hydrogenated maltose] | 90 | 90 | 200 | – | – |
| OC[C@H]1O[C@@H](O[C@H]2[C@H](O)[C@@H](O)C(O)O[C@@H]2CO)[C@H](O)[C@@H](O)[C@H]1O (stereo partly drawn) [lactose] | 69 | 69 | 120 | – | – |
| OC[C@@H](O)[C@@H](O)[C@H](O)[C@H](O)CO [mannitol (spray dried), mannitol] | 45 | 45 | 55 | – | – |
| OC[C@H]1O[C@@](CO)(O[C@H]2O[C@H](CO)[C@@H](O)[C@H](O)[C@H]2O)[C@@H](O)[C@@H]1O [saccharose (fine grain), saccharose] | 81 | – | – | – | – |
